# Experimental data from patent US8835392B2, “Mimetic peptides and the use thereof in the form of 20S, 26S and immunoproteasome inhibitors” (Technische Universität, priority 2005, dated 2014).
# “Also recorded” adds a separate entry of the source. Where a SMILES comes first, the peptide text is derived from it. The star is where a group is joined. Cbz = O=C(OCc1ccccc1)*; OtBu = CC(C)(C)O*
# What was measured:
# [1] = tested on: poly-ubiquitinylated proteins in HeLa-cells; assay: Accumulation of poly-ubiquitinylated proteins, Western blot; assay type: cell-based; conditions: 1 μM for compound 15
# Protocol: A, HeLa-cells were cultivated were 24 hours in the presence of the inhibitor. The protein concentration was determined in accordance with the cellular lysis according to Bradford in order to normalise the proteasomal activities to the different amounts of cells. Subsequently Complete (Roche) was added to all lysates, and the proteasomal activity was determined through the hydrolysis of Suc-LLVY-AMC. B, HeLa-cells was incubated with 1 μM of compound 15 for 2, 4, 6 and 24 hours. Cells were lysed, and proteins were separated through SDS-PAGE on a 10% gel, blotted to a PVDF-membrane. The accumulation of the poly-ubiquitinylated proteins was detected in a Western blot by an anti-ubiquitine-antibody (DAKO). C, HeLa-Cells were treated with increasing concentrations of the inhibitor 15, 25, 26, 27, and 28 for 24 hours (lane 1: without inhibitor; lane 2: 10 nM; lane 3: 100 nM and lane 4: 1 μM of the given inhibitor). Cells were lysed, proteins were separated on 15% gels, and the accumulation of the poly-ubiquitinylated proteins was controlled through Western blot.
# A specific inhibition of the proteasome lead to an accumulation of poly-ubiquitinylated proteins. Indeed, the amount of poly-ubiquitinylated proteins increased during the incubation with the inhibitors. First effects were observed after 2 hours, for compound 15 (FIG. 6B) as well as for compounds 20, 22, 25 and 28 (data not shown).
# 50 μg of whole-cell-lysate were separated by SDS-PAGE, and blottet onto a PVDF-membrane (Millipore). The blots were blocked by means of a 5% milk-suspension. The poly-ubiquitinylated proteins were detected by anti-ubiquitin-antibody (DAKO), and anti-rabbit, POD-labelled, as a secondary antibody (DIANOVA), and visualized through ECL.
# [2] = tested on: caspase 3/7 activation in HeLa-cells; assay: Apoptosis-assay, caspase 3/7-activity (Apo-One); assay type: cell-based; conditions: 1 μM, 20 hours
# Protocol: HeLa-cells that were cultivated for 20 hours in the presence of the given inhibitor, were subsequently incubated for 2 hours with caspase-substrate (Apo-One; Promega). The activation of caspases 3/7 was measured at 538 nm (excitation at 485 nm). Treatment of the cells with TNFα or with MG132 served as control.
# For this, 10,000 HeLa-cells pro well were seeded in a 96-well-plate, and co-cultivated for 20 hours with 1 μM of the inhibitors 7, 8, 11, 13-16, 18, 20-23 and 25-28. The induction of apoptosis was determined by measuring of the caspase 3/7-activity (Apo-One®-Assay, Promega).
# [3] = target: T1, 20S proteasome β5 chymotrypsin-like activity (GLL-MCA) (Homo sapiens, UniProt P20618+P28074); assay: Protease assay, chymotrypsin-like activity of isolated 20S proteasomes (GLL substrate); assay type: biochemical; conditions: isolated 20S proteasome; GLL-MCA 50 μM; 15 min pre-incubation; read-out: IC50 β5 Chym.-like (L)
# T1 construct: Proteasomes were isolated from red blood cells; from tissue; host or cells: red blood cells
# Protocol: (§1) Proteasomes were isolated from red blood cells. Cells were lysed with DTT (1 mM), and the stroma-free supernatant was loaded on DEAE-sepharose (Toyopearls). Proteasome was eluted with an NaCl-gradient in TEAD (20 mM TrisCl pH 7.4, 1 mM EDTA, 1 mM azide, 1 mM DTT) of 100 to 300 mM NaCl. Proteasome was concentrated using ammonium sulfate-precipitation (between 40 and 70% saturation) and was separated in a 10-40% sucrose-gradient through centrifugation at 40.000 rpm for 16 hours (SW40; L7, Beckman & Coulter). Finally, the proteasomes were purified on a MonoQ-column and eluted with an NaCl-gradient at about 280 mM NaCl. The fractions containing purified proteasome were dialysed against 50 mM NaCl in TEAD and stored on ice. The purity was determined using SDS-PAGE.
# (§2) Suc-LLVY-AMC, Z-VGR-AMC and LLE-AMC (BACHEM, Calbiochem) was used, in order to determine the chymotrypsin-like, trypsin-like or caspase-like (post-acidic)-activities of the proteasome. Substrate was incubated with proteasome at 37° C. in assay-buffer (20 mM Tris/Cl, pH 7.2, 1 mM EDTA, 1 mM DTT) for one hour. 100 ng proteasome was pre-incubated with 0.01-10 μM of the inhibitor for […]. The reaction was started by the addition of substrate (50 μM). The AMC as released was detected using fluorescence emission at 460 nm (excitation at 390 nm) using a TECAN-fluorimeter. The activity was calculated in fluorescence-units. The inhibition is depicted by IC50-values.
# (§3) The IC50-values form the inhibition of the proteasome were calculated at increasing concentrations of the inhibitor. The samples were pre-incubated for 15 min in ice. The assay was started through the addition of 50 μM of one of the following fluorogenic peptide substrates:
# (§4) The release of MCA was determined at 460 nm emission (excitation 390 nm). The IC50-values as calculated for MG132 served as controls.
# [4] = tested on: Human melanoma cells (MeWo); assay: Viability of human melanoma cells (MeWo), crystal violet-staining; assay type: cell-based; conditions: 72 h
# Protocol: A, Human melanoma cells (MeWo) were treated with increasing concentrations of the compounds 15 or 3 (MG132) for 72 hours. The viability of the cells after the treatment with compound 15 (-♦-) and with MG132 (-□-) was detected by a crystal-violet-staining. B and C, MeWo cells were co-cultivated with the compounds 15 and 3 (MG132) for 24 hours. The cells were subsequently fixed in 70% ethanol, and treated with RNAse A. The DNA was stained with propidium iodide (5 μg/ml), and analysed by means of FACS (FACS Calibur flow cytometer; Beckton Dickinson). The statistical significance was detected by the chi-square-test. The relative distribution of the cells that were present in the G1-(black), in the S-(white) or in the G2 phase (hatched) of the cellular cycle is shown for both compounds as examined (15 in B and MG132 in C).
# Human melanoma cells (MeWo) were incubated for 72 h with different concentrations of the inhibitor 15 and 28, and the viability of the cells was determined by means of crystal violet-staining (FIG. 8).
# [5] = tested on: Fibroblasts; assay: Viability of fibroblasts (control); assay type: cell-based; conditions: Fibroblast, identical conditions (72 h), read-out: concentration for 50% reduction of the viability
# [6] = target: T2, 20S proteasome β2 trypsin-like activity (VGR-MCA) (Homo sapiens, UniProt P49720+Q99436); assay: Protease assay, trypsin-like activity of isolated 20S proteasomes; assay type: biochemical; conditions: isolated 20S proteasome; VGR-MCA 50 μM; 15 min pre-incubation; read-out: IC50 β2 Trypsin-like (R)
# T2 construct: Proteasomes were isolated from red blood cells; from tissue; host or cells: red blood cells
# Protocol: as §1, §2
# The effects thereof were compared with the one of the commonly used proteasomal inhibitor 3 (MG132). The chymotrypsin-like (Suc-LLVY-AMC), the trypsin-like (Bz-VGR-AMC), and the caspase-like (Z-LLE-AMC)-activities of 20S proteasomes were determined following incubation for one hour at 37° C.
# as §3, §4
IC50 [3] [µM],IC50 [6] [µM],Compound,first effects on accumulation of poly-ubiquitinylated proteins observed after [1] [h],induction of apoptosis (activation of caspase 3 and 7) [2],sensitivity of tumour cells [4],"IC50 ([4]; Homo sapiens, read-out: concentration at rate of survival of 50% of the cells) [µM]",IC50 [5] [µM]
0.031,0.155,"CC(C)CC(C=O)NC(=O)C(CC(=O)OC(C)(C)C)NC(=O)C(CC(C)C)NC(=O)OCc1ccccc1 (stereo not drawn) [Compound 15, Z-Leu-Asp(O^tBu)Leu-CHO] (Cbz-Leu-Asp(OtBu)-Leu-aldehyde; configuration not given here)",2,beginning apoptosis; also recorded: strong induction of apoptosis,increased sensitivity of tumour cells,0.015,0.5 to 1
,,CC(C)C[C@H](NC(=O)OCc1ccccc1)C(=O)N[C@@H](CC(C)C)C(=O)N[C@@H](CC(C)C)C(=O)C(=O)Nc1ccccc1 [Compound 28],2,beginning apoptosis; also recorded: strong induction of apoptosis,increased sensitivity of tumour cells,,
